# Measured values as given in patent publication US20220409620A1, “REDUCING IMMUNOGENICITY TO PEGLOTICASE” (Horizon Pharma Rheumatology LLC, priority 2016, published 2022).
# Like-named read-outs stand apart in the source and are kept apart here.
# Legend:
# [1] = tested on: adult patients with uncontrolled gout; conditions: human, in vivo
# [2] = tested on: patients with refractory chronic gout; conditions: Phase 2 program; cited from earlier work
# [3] = tested on: adult patients with uncontrolled gout; assay: Patient and physician global assessment of gout, open-label study; format: in vivo, human; conditions: Methotrexate Baseline, mITT Population
# Excerpt: Patient Global Assessment: The patient global assessment was collected at the Screening and Week −4 (prior to the first dose of MTX) Visits during the MTX Run-in Period; prior to KXX infusion at the Day 1 and Weeks 14, 24 and 36 Visits during the KXX+MTX Period; at the End of Pegloticase Infusions Visit (if applicable); the Week 52/End of Study/Early Termination Visit and the Post Treatment Periods 3 and 6 Month Follow-up Visits.
# Physician Global Assessment: The physician global assessment was collected at the Screening and Week −4 or week −6 (prior to the first dose of MTX) Visits during the MTX Run-in Period for the open-label and randomized studies, respectively; prior to pegloticase infusion at the Day 1 and Weeks 14, 24 and 36 Visits, and the Day 1 and week 6, 14, 20, 24, 30, 36, and 44 visits during the Pegloticase+IMM Period for the open-label and randomized studies, respectively; at the End of Pegloticase Infusions Visit (if applicable), the Week 52/End of Study/Early Termination Visit and the Post Treatment Periods 3 and 6 Month Follow-up Visits (open-label study).
# [4] = End of Pegloticase Infusions Visit
molecule,measurement,setting,value
"CN(Cc1cnc2nc(N)nc(N)c2n1)c1ccc(C(=O)N[C@@H](CCC(=O)O)C(=O)O)cc1 [MTX, methotrexate]","Number of gout flares among subjects with at least one gout flare, Mean (SD)",[1],1.2
same,"Number of gout flares among subjects with at least one gout flare, Median",[1],1.0
same,"Any Gout Flares Since the Last Visit, %",[1]; 1 day,(57.1) %
same,"Maximum Reported Intensity of Flare (0-10 scale), Mean",[1]; 1 day,5.8
same,"Maximum Reported Intensity of Flare (0-10 scale), Median",[1]; 1 day,5.5
same,"Maximum Reported Intensity of Flare (0-10 scale), Min, Max",[1]; 1 day,"4, 8"
same,"Pain at rest > 3 out of 10, %",[1]; 1 day,(57.1) %
same,"Pain different than normal, %",[1]; 1 day,(50.0) %
same,"Swelling in Joints, %",[1]; 1 day,(42.9) %
same,"Maximum Reported Intensity of Flare (0-10 scale), Median",[1]; -4 week,8.0
same,"Maximum Reported Intensity of Flare (0-10 scale), Min, Max",[1]; -4 week,"7, 10"
pegloticase,dose-response plateau dose,[2],12 mg
same,minimally effective dose,[2],4 mg
same,safe and optimally effective dose,[2],8 mg
same,"Patient Global Assessment of Gout, Change from Baseline, Mean (SD)",[3]; Day 1,0.2 (1.85)
same,"Patient Global Assessment of Gout, Change from Baseline, Median",[3]; Day 1,0.0
same,"Patient Global Assessment of Gout, Observed, Mean (SD)",[3]; Day 1,5.8 (1.76)
same,"Patient Global Assessment of Gout, Observed, Median",[3]; Day 1,6.0
same,"Physician Global Assessment of Gout, Change from Baseline, Mean (SD)",[3]; Day 1,−0.1 (2.35)
same,"Physician Global Assessment of Gout, Change from Baseline, Median",[3]; Day 1,0.0
same,"Physician Global Assessment of Gout, Observed, Mean (SD)",[3]; Day 1,6.0 (2.45)
same,"Physician Global Assessment of Gout, Observed, Median",[3]; Day 1,7.0
same,"Patient Global Assessment of Gout, Change from Baseline, Mean (SD)",[3]; Early Termination Visit,0.7 (2.89)
same,"Patient Global Assessment of Gout, Change from Baseline, Median",[3]; Early Termination Visit,−1.0
same,"Patient Global Assessment of Gout, Observed, Mean (SD)",[3]; Early Termination Visit,5.7 (3.06)
same,"Patient Global Assessment of Gout, Observed, Median",[3]; Early Termination Visit,5.0
same,"Physician Global Assessment of Gout, Change from Baseline, Mean (SD)",[3]; Early Termination Visit,−2.7 (2.08)
same,"Physician Global Assessment of Gout, Change from Baseline, Median",[3]; Early Termination Visit,−2.0
same,"Physician Global Assessment of Gout, Observed, Mean (SD)",[3]; Early Termination Visit,3.7 (2.08)
same,"Physician Global Assessment of Gout, Observed, Median",[3]; Early Termination Visit,3.0
same,"Patient Global Assessment of Gout, Change from Baseline, Mean (SD)",[3]; [4],−4.0 (4.24)
same,"Patient Global Assessment of Gout, Change from Baseline, Median",[3]; [4],−4.0
same,"Patient Global Assessment of Gout, Observed, Mean (SD)",[3]; [4],2.0 (2.83)
same,"Patient Global Assessment of Gout, Observed, Median",[3]; [4],2.0
same,"Physician Global Assessment of Gout, Change from Baseline, Mean (SD)",[3]; [4],−7.0 (0.00)
same,"Physician Global Assessment of Gout, Change from Baseline, Median",[3]; [4],−7.0
same,"Physician Global Assessment of Gout, Observed, Mean (SD)",[3]; [4],0.5 (0.71)
same,"Physician Global Assessment of Gout, Observed, Median",[3]; [4],0.5
same,"Patient Global Assessment of Gout, Change from Baseline, Mean (SD)",[3]; Week 14,−2.5 (2.77)
same,"Patient Global Assessment of Gout, Change from Baseline, Median",[3]; Week 14,−2.5
same,"Patient Global Assessment of Gout, Observed, Mean (SD)",[3]; Week 14,3.1 (2.27)
same,"Patient Global Assessment of Gout, Observed, Median",[3]; Week 14,3.0
same,"Physician Global Assessment of Gout, Change from Baseline, Mean (SD)",[3]; Week 14,−4.2 (2.22)
same,"Physician Global Assessment of Gout, Change from Baseline, Median",[3]; Week 14,−5.0
same,"Physician Global Assessment of Gout, Observed, Mean (SD)",[3]; Week 14,1.9 (1.64)
same,"Physician Global Assessment of Gout, Observed, Median",[3]; Week 14,2.0
same,"Patient Global Assessment of Gout, Change from Baseline, Mean (SD)",[3]; Week 24,−3.7 (3.23)
same,"Patient Global Assessment of Gout, Change from Baseline, Median",[3]; Week 24,−3.0
same,"Patient Global Assessment of Gout, Observed, Mean (SD)",[3]; Week 24,2.0 (1.79)
same,"Patient Global Assessment of Gout, Observed, Median",[3]; Week 24,3.0
same,"Physician Global Assessment of Gout, Change from Baseline, Mean (SD)",[3]; Week 24,−5.3 (2.10)
same,"Physician Global Assessment of Gout, Change from Baseline, Median",[3]; Week 24,−6.0
same,"Physician Global Assessment of Gout, Observed, Mean (SD)",[3]; Week 24,0.8 (0.87)
same,"Physician Global Assessment of Gout, Observed, Median",[3]; Week 24,1.0
same,"Patient Global Assessment of Gout, Change from Baseline, Mean (SD)",[3]; Week 36,−3.4 (2.92)
same,"Patient Global Assessment of Gout, Change from Baseline, Median",[3]; Week 36,−4.0
same,"Patient Global Assessment of Gout, Observed, Mean (SD)",[3]; Week 36,2.1 (2.80)
same,"Patient Global Assessment of Gout, Observed, Median",[3]; Week 36,1.0
same,"Physician Global Assessment of Gout, Change from Baseline, Mean (SD)",[3]; Week 36,−5.9 (2.03)
same,"Physician Global Assessment of Gout, Change from Baseline, Median",[3]; Week 36,−6.0
same,"Physician Global Assessment of Gout, Observed, Mean (SD)",[3]; Week 36,0.7 (1.00)
same,"Physician Global Assessment of Gout, Observed, Median",[3]; Week 36,0.0
same,"Patient Global Assessment of Gout, Change from Baseline, Mean (SD)",[3]; Week 52/ET,−4.3 (0.58)
same,"Patient Global Assessment of Gout, Change from Baseline, Median",[3]; Week 52/ET,−4.0
same,"Patient Global Assessment of Gout, Observed, Mean (SD)",[3]; Week 52/ET,1.0 (1.00)
same,"Patient Global Assessment of Gout, Observed, Median",[3]; Week 52/ET,1.0
same,"Physician Global Assessment of Gout, Change from Baseline, Mean (SD)",[3]; Week 52/ET,−7.3 (0.58)
same,"Physician Global Assessment of Gout, Change from Baseline, Median",[3]; Week 52/ET,−7.0
same,"Physician Global Assessment of Gout, Observed, Mean (SD)",[3]; Week 52/ET,1.0 (0.00)
same,"Physician Global Assessment of Gout, Observed, Median",[3]; Week 52/ET,1.0
